This is an account of results in PMC7078479, “Sulfamoyl Heteroarylcarboxylic Acids as Promising Metallo-β-Lactamase Inhibitors for Controlling Bacterial Carbapenem Resistance” (mBio, 2020).

Structures are written as SMILES.

The subject of experiment [1] is IMP producers rather than NDM/VIM producers. As to conditions: cited from earlier work.
In the next experiment the test system is E. coli DH5α/pBC-VIM-2. Nature of the experiment: Susceptibility and checkerboard testing, VIM-2-producing E. coli. Type of experiment: cell-based, Escherichia coli. As to conditions: Escherichia coli, read-out: MIC of CAZ without inhibitor. On the procedure:
MICs were determined via the microdilution method according to the CLSI guidelines ([38]). In brief, 5 × 10^4 bacterial cells were inoculated in 100 μl of cation-adjusted Mueller-Hinton broth (Becton, Dickinson and Company, Franklin Lakes, NJ) containing the β-lactams and appropriately diluted inhibitors. The final concentration of DMSO was maintained at 2% in the assays. The tested plates were then incubated at 35°C for 16 to 20 h. The MIC value was determined as the lowest concentration of tested β-lactams where no bacterial growth was visibly observed. The optical density at 600 nm (OD600) value was measured using a plate reader for drawing the heat maps. The FIC index value was calculated using the following equation: FIC index=MIC of β-lactam with inhibitor/MIC of β-lactam alone+MIC of inhibitor with β-lactam/MIC of inhibitor alone
Unless noted otherwise, the FIC index was defined as the lowest value among all obtained values. The synergistic effect was defined as the effect observed when the FIC index value was ≤0.5.

A further experiment concerns the target T1, NDM-1 (Klebsiella pneumoniae, UniProt C7C422).
T1 construct: made in house
In words: Inhibition of IPM hydrolysis by purified NDM-1, Ki by Lineweaver-Burk plots. Format: biochemical. As to conditions: IPM as substrate, competitive model, mean of three replicates; read-out: Inhibition constant Ki NDM-1. The protocol:
(§1) MBL (10 nM) was mixed with the inhibitors and incubated for 5 min at 30°C. IPM was added to reach a concentration of 150 μM, and the velocity of IPM hydrolysis was monitored at 298 nm. The assay was performed at 30°C using 10 mM HEPES (pH 7.5) buffer containing 200 mM NaCl and 50 μg/ml bovine serum albumin (BSA) for IMP-1, NDM-1, VIM-2, and SMB-1. For SFH-1 and L1, another 10 mM HEPES (pH 7.5) buffer containing 200 mM NaCl, 20 μM ZnSO4, and 50 μg/ml BSA was used.
(§2) Initial velocities (vo) were measured after varying the concentrations of IPM and inhibitors, and inverse velocities (1/vo) were plotted against inverse IPM concentrations […]. Lineweaver-Burk plots were constructed to obtain the inhibition constant (Ki) with the competitive inhibition model using the SigmaPlot 13 suite (Hulinks).

The target in another experiment is T2, IMP-1 (Serratia marcescens, UniProt P52699).
T2 construct: made in house
T2 sequence (P52699 19-246 limits assumed): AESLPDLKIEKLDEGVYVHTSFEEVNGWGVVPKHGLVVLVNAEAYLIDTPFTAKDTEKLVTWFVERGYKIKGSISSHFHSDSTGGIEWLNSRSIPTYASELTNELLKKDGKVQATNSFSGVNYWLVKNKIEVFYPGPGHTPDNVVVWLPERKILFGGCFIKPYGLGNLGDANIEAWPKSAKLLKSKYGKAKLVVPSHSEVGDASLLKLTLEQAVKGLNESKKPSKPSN
Nature of the experiment: Inhibition of IPM hydrolysis by purified IMP-1, Ki by Lineweaver-Burk plots. Type of experiment: biochemical. The protocol:
as §1, §2

A further experiment deals with T3, VIM-2 (Escherichia coli, UniProt Q5U7L7).
T3 construct: made in house
In words: Inhibition of IPM hydrolysis by purified VIM-2, Ki by Lineweaver-Burk plots. Format: biochemical. As to conditions: IPM as substrate, competitive model, mean of three replicates; read-out: Inhibition constant Ki VIM-2. The protocol: as §1, §2

T1 sequence (C7C422 29-270 limits assumed): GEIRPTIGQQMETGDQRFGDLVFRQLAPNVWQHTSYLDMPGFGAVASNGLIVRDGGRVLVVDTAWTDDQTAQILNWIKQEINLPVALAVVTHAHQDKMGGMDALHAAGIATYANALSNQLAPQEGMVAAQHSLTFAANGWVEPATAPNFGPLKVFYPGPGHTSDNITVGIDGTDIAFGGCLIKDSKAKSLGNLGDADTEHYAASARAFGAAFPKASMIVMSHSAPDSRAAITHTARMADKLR

`N[C@H](CN[C@H](CN[C@@H](CC(=O)O)C(=O)O)C(=O)O)C(=O)O` [AMA, Aspergillomarasmine A]: in experiment [1], the “Selectivity between IMP and NDM/VIM producers” value was “superior for NDM/VIM”.

In the case of `O=C(O)c1ncsc1NS(=O)(=O)c1cccnc1` [ANT431], in experiment [1], the “Selectivity between IMP and NDM/VIM producers” value was “superior for NDM/VIM”.

With `CC(C)(O/N=C(\C(=O)N[C@@H]1C(=O)N2C(C(=O)[O-])=C(C[n+]3ccccc3)CS[C@H]12)c1csc(N)n1)C(=O)O` [CAZ, ceftazidime, reference compound], in the experiment with E. coli DH5α/pBC-VIM-2, the MIC amounted to 16 µg/mL.

As for `NS(=O)(=O)c1sccc1C(=O)O` [Compound 1], the inhibition constant Ki at NDM-1 stood at 7.69 µM; at IMP-1, 34.1 µM; on VIM-2 it was 15.5 µM.

For the compound `NS(=O)(=O)c1sc(Cl)cc1C(=O)O` [Compound 2], the Ki at NDM-1 was 19.3 µM; on IMP-1 it was 19.1 µM; on VIM-2 it was 2.29 µM.

For the compound `CCc1oc(CC)c(S(N)(=O)=O)c1C(=O)O` [Compound 4, 2,5-diethyl-4-sulfamoylfuran-3-carboxylic acid], the Ki worked out at 0.92 µM at NDM-1, 0.3 µM at IMP-1 and 1.01 µM on VIM-2.

Take `CCCc1oc(CCC)c(S(N)(=O)=O)c1C(=O)O` [Compound 5, 2,5-dipropyl-4-sulfamoylfuran-3-carboxylic acid]: the inhibition constant (Ki) on NDM-1 was 0.51 µM; at IMP-1, 0.38 µM; at VIM-2, 0.46 µM.

For the compound `NS(=O)(=O)c1c(C2CCCC2)oc(C2CCCC2)c1C(=O)O` [Compound 6, 2,5-dicyclopentyl-4-sulfamoylfuran-3-carboxylic acid], the inhibitory constant (Ki) on NDM-1 turned out to be 0.25 µM; at IMP-1, 1.27 µM; at VIM-2, 0.76 µM.

With `Cc1c(C(=O)O)c(S(N)(=O)=O)c(C)n1C` [Compound 7, 1,2,5-trimethyl-4-sulfamoylpyrrole-3-carboxylic acid], the Ki at NDM-1 was 9.08 µM; on IMP-1, 1.23 µM; at VIM-2, 0.42 µM.

As for `Cc1c(C(=O)O)c(S(N)(=O)=O)c(C)n1C1CC1` [Compound 9, 1-cyclopropyl-2,5-dimethyl-4-sulfamoylpyrrole-3-carboxylic acid], the Ki was found to be 4.85 µM on NDM-1, 14.1 µM on IMP-1 and 1.7 µM on VIM-2.

Take `Cc1c(C(=O)O)c(S(N)(=O)=O)c(C)n1-c1ccccc1` [Compound 10, 2,5-dimethyl-1-phenyl-4-sulfamoylpyrrole-3-carboxylic acid]: the inhibition constant Ki at NDM-1 was 10.2 µM; on IMP-1 it was 7.51 µM; on VIM-2 it was 20.8 µM.

On to `CC/C(C(=O)[O-])=C(\CC)C(=O)[O-].[Na+].[Na+]` [ME1071], for which the “Selectivity between IMP and NDM/VIM producers” value in experiment [1] was “superior for IMP”.

For the compound `O=C(O)/C(S)=C/c1c(Cl)ccc(Cl)c1Cl` [ML302F], the “Selectivity between IMP and NDM/VIM producers” value in experiment [1] is recorded as “superior for IMP”.

`CN1CCN(NC(=O)CN2C(=O)/C(=C/c3c(Cl)ccc(Cl)c3Cl)SC2=S)CC1` [ML302]: in experiment [1], the “Selectivity between IMP and NDM/VIM producers” value is reported as “superior for IMP”.

On to `NCCN[C@H]1CC[C@H](CC(=O)N[C@H]2Cc3cccc(C(=O)O)c3OB2O)CC1` [VNRX-5133, taniborbactam], for which, in experiment [1], the “Selectivity between IMP and NDM/VIM producers” value was “superior for NDM/VIM”.
